Binding and K d data for 1 molecule are collected here from article PMC12147209 (2025).

Experiment [1] has as its system 5′-AA-3′ (DNA, single strand, 5'-phosphate (discussed as a 5' phosphate group in the modelled structure)) AA. Description: Raman spectroscopy of dried mixture (532 nm). Conditions: no added salt stated; water, dried residue; spermine and dinucleotide at 2:1 molar excess, incubated overnight.
Experiment [2] shares this test system. Description: SERS adsorption isotherm, Hill-Langmuir fit. Conditions: no added salt stated; immobilised compound, apparent; dinucleotide adsorption on spermine-capped gold-silver nanostars; 20 °C; spermine 6.7×10^-5 M; Hill n 1.5.

Take `NCCCNCCCCNCCCN`: the binding result in experiment [1] is recorded as “yes”. Besides, in experiment [2], the K d entry was “(6.2 ± 0.7) 10^–7 M”.
